Measurements: patent US10745397B2, “1-Substituted 1,2,3,4-tetrahydro-1,7-naphthyridin-8-amine derivatives and their use as EP4 receptor antagonists” (TAKEDA PHARMACEUTICAL COMPANY LIMITED, priority 2015, dated 2020)

Assays:
[1] = biological target: T1, hEP4 (C6 glioma cells overexpressing hEP4) (Homo sapiens, UniProt P35408); assay: hEP4 cell based assay (cAMP), inhibition of PGE2 induced cAMP, HTRF; conditions: 1 μM compound, PGE2 at EC80
T1 construct: host or cells: C6 glioma cells overexpressing hEP4
T1 sequence (P35408 whole entry): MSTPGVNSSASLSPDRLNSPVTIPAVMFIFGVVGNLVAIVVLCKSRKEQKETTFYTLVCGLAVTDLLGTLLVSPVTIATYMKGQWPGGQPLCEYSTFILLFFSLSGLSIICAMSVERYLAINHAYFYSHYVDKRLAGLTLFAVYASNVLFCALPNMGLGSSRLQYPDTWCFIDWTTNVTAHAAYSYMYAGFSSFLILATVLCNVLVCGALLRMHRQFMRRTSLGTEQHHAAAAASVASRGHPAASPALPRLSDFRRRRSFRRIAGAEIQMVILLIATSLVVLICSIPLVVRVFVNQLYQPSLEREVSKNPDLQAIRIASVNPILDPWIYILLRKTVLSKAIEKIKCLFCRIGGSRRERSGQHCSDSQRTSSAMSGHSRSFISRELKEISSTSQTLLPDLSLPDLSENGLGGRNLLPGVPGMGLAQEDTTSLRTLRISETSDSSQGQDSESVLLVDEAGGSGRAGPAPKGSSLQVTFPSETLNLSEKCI
Summary of the method: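 C6 glioma cells overexpressing hEP4 were pre-incubated 15 min with compound plus IBMX and Ro 20-1724 (each […]), then stimulated 30 min with PGE2 at EC80; 1% DMSO. cAMP was read by competitive HTRF (665/620 nm); IC50 came from non-linear regression, with agonist-only as 0% and no-agonist as 100% inhibition.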

[2] = test system: Adjuvant Induced Arthritis (AIA) Model in Female Lewis Rats; assay: Suppression of arthritis development in adjuvant induced arthritis (AIA) model, arthritis score; type: in vivo, rat; conditions: PO; for % reduction in arthritis score: day 14 to day 23, compared to vehicle treatment at end of study period; for ED50: Rattus norvegicus, BID, female Lewis rats
Procedure: Adjuvant arthritis was induced on day 1 in female Lewis rats (10-12 weeks) by intradermal injection of heat killed Mycobacterium tuberculosis in complete freund's adjuvant (CFA) intradermally (Mycobacterium tuberculosis 100 mg in 5 mL incomplete freunds adjuvant, 200 μL per rat). Animals were randomized into different treatment groups, each group consist of 8 animals based on clinical scores on day 14. The animals in control group were given CFA and in second control group were administered with CFA and vehicle (1% Tween-80+0.5% CMC, quantity sufficient, 3 ml/kg, PO), where as animals in experimental groups were treated with CFA and EP4 antagonist (Example B2 and Example B4) in therapeutic fashion orally twice a day (BID) from day 14 to day 23 at 0.1, 0.3, 1, 3, 10 and 30 mg/kg doses.
Animals were evaluated for clinical symptoms and scored accordingly for inflamed paws and erythema. The scorer was blind to the treatment groups. Key findings for example B2 (Refer FIG. 1) and B4 (Refer FIG. 2) in rat arthritis model are as follows.

[3] = biological target: T2, human EP4 receptor (Homo sapiens, UniProt P35408); assay: hEP4 radioligand binding assay ([3H] PGE2 competitive binding, membrane fractions); conditions: 300 nM compound; 1 nM [3H] PGE2
T2 construct: expressed in transfected cells; host or cells: FreeStyle293 (HEK293F) cells, transient transfection with pcDNA3.1(+), total membrane fraction
T2 sequence (P35408 whole entry): as above
Summary of the method: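 Membranes from FreeStyle293 (HEK293F) cells transiently expressing full-length human EP4; 10 μg protein incubated with compound and 1 nM [3H]PGE2 in 50 mM Tris-HCl pH 6.0, 10 mM MgCl2, 0.5 mM EDTA, 1% DMSO, 2 h at room temperature. Nonspecific binding with 10 μM unlabeled PGE2; filtration and scintillation counting; Ki by one-site fit.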

## C[C@H](Nc1nccc2c1N(Cc1cccc(Cl)c1)CCO2)c1ccc(C(=O)O)cc1 [Example B2, 4-[(1S)-1-[[4-[(3-Chlorophenyl)methyl]-2,3-dihydropyrido[4,3-b][1,4]oxazin-5-yl]amino]ethyl]benzoic acid]
[1]
  inhibition at 1 µM: 100%
[2]; 0.1 mg/kg BID
  % reduction in arthritis score: 23%
[2]; 0.3 mg/kg BID
  % reduction in arthritis score: 45%
[2]; 1 mg/kg BID
  % reduction in arthritis score: 46%
[2]; 3 mg/kg BID
  % reduction in arthritis score: 67%
[2]; 10 mg/kg BID
  % reduction in arthritis score: 68%
[2]; 30 mg/kg BID
  % reduction in arthritis score: 71%
[2]
  ED50: 0.76 mg/kg
[3]
  inhibition at 0.3 µM: 98%

## O=C(O)c1ccc(C2(Nc3nccc4c3N(Cc3ccc(F)c(F)c3)CCO4)CC2)cc1 [Example B4, 4-[1-[[4-[(3,4-Difluorophenyl)methyl]-2,3-dihydropyrido[4,3-b][1,4]oxazin-5-yl]amino]cyclopropyl]benzoic acid]
[1]
  inhibition at 1 µM: 97%
[2]; 0.1 mg/kg BID
  % reduction in arthritis score: 3%
[2]; 0.3 mg/kg BID
  % reduction in arthritis score: 4%
[2]; 1 mg/kg BID
  % reduction in arthritis score: 27%
[2]; 3 mg/kg BID
  % reduction in arthritis score: 39%
[2]; 10 mg/kg BID
  % reduction in arthritis score: 51%
[2]; 30 mg/kg BID
  % reduction in arthritis score: 55%
[2]
  ED50: 8.8 mg/kg
[3]
  inhibition at 0.3 µM: 83%
